Consider 30 molecules from patent US20250325534A1, “MICROBIOCIDAL TETRAHYDROISOQUINOLINE DERIVATIVES” (SYNGENTA CROP PROTECTION AG, priority 2021, published 2025).

Bounds are passed on as bounds.

This assay concerns Mycosphaerella graminicola. Description: Mycosphaerella graminicola (Septoria tritici) / liquid culture (Septoria blotch). The format is cell-based. The settings on record: Zymoseptoria tritici, 96 h, photometrically 4-5 days after application, read-out: control of Mycosphaerella graminicola. As for the experimental part: Example B19: Mycosphaerella graminicola (Septoria tritici)/Liquid Culture (Septoria Blotch) Conidia of the fungus from cryogenic storage are directly mixed into a nutrient broth (potato dextrose broth). After placing a DMSO solution of test compound into a microtiter plate (96-well format), the nutrient broth containing the fungal spores is added. The test plates are incubated at 24° C. and the inhibition of growth is determined photometrically 4-5 days after application.
As to `COc1ccc2c(c1)[C@@H](c1cnn(C)c1)CN(C(=O)c1cc(-c3ccc(F)cc3F)on1)[C@@H]2C` (racemic) [Compound P-217, [5-(2,4-difluorophenyl)isoxazol-3-yl]-[rac-(1R,4S)-6-methoxy-1-methyl-4-(1-methylpyrazol-4-yl)-3,4-dihydro-1H-isoquinolin-2-yl]methanone], the inhibition of growth at 20 ppm was no less than 80%.

Consider `Cc1c([C@H]2CN(C(=O)c3cc(-c4ccc(F)cc4F)on3)[C@@H](C)c3ccccc32)cnn1C` (racemic) [Compound P-242, [5-(2,4-difluorophenyl)isoxazol-3-yl]-[rac-(1S,4S)-4-(1,5-dimethylpyrazol-4-yl)-1-methyl-3,4-dihydro-1H-isoquinolin-2-yl]methanone], for which the inhibition of growth at 20 ppm was no less than 80%.

Consider `C[C@H]1c2ccc(O)cc2[C@@H](c2cnn(C)c2)CN1C(=O)c1cc(-c2ccc(F)cc2F)on1` (racemic) [Compound P-245, [5-(2,4-difluorophenyl)isoxazol-3-yl]-[rac-(1S,4S)-6-hydroxy-1-methyl-4-(1-methylpyrazol-4-yl)-3,4-dihydro-1H-isoquinolin-2-yl]methanone], for which the inhibition of growth at 20 ppm is no less than 80%.

As for `C[C@@H]1c2ccccc2[C@](C)(c2cnn(C)c2)CN1C(=O)c1cc(-c2ccc(F)cc2F)on1` (single isomer, unassigned) [Compound P-7], the inhibition of growth at 20 ppm was no less than 80%.

`Cn1cc(C2CN(C(=O)c3cc(-c4ccc(S(C)(=O)=O)cc4F)on3)Cc3ccccc32)cn1` (stereo not drawn) [Compound P-20, [5-(2-fluoro-4-methylsulfonyl-phenyl)isoxazol-3-yl]-[4-(1-methylpyrazol-4-yl)-3,4-dihydro-1H-isoquinolin-2-yl]methanone]: the inhibition of growth at 20 ppm is no less than 80%.

Turning to `Cn1cc(C2CN(C(=O)c3cc(-c4ccc(F)cc4F)on3)Cc3cc(-c4ccccc4)ccc32)cn1` (stereo not drawn) [Compound P-21, [5-(2,4-difluorophenyl)isoxazol-3-yl]-[4-(1-methylpyrazol-4-yl)-7-phenyl-3,4-dihydro-1H-isoquinolin-2-yl]methanone], the inhibition of growth at 20 ppm is no less than 80%.

For `CC1c2ccc(OCC(F)(F)F)cc2C(C)(c2cnn(C)c2)CN1C(=O)c1cc(-c2ccccc2)on1` (stereo not drawn) [Compound P-27, [1,4-dimethyl-4-(1-methylpyrazol-4-yl)-6-(2,2,2-trifluoroethoxy)-1,3-dihydroisoquinolin-2-yl]-(5-phenylisoxazol-3-yl)methanone], the inhibition of growth at 20 ppm is no less than 80%.

As for `CC1c2ccc(OC(F)F)cc2C(C)(c2cnn(C)c2)CN1C(=O)c1cc(-c2ccccc2)on1` (stereo not drawn) [Compound P-28, [6-(difluoromethoxy)-1,4-dimethyl-4-(1-methylpyrazol-4-yl)-1,3-dihydroisoquinolin-2-yl]-(5-phenylisoxazol-3-yl)methanone], the inhibition of growth at 20 ppm was no less than 80%.

`CC1c2ccc(O)cc2C(C)(c2cnn(C)c2)CN1C(=O)c1cc(-c2ccccc2)on1` (stereo not drawn) [Compound P-29, [6-hydroxy-1,4-dimethyl-4-(1-methylpyrazol-4-yl)-1,3-dihydroisoquinolin-2-yl]-(5-phenylisoxazol-3-yl)methanone]: the inhibition of growth at 20 ppm was no less than 80%.

With `CCC1c2ccccc2C(c2cnn(C)c2)CN1C(=O)c1cc(-c2ccccc2)on1` (stereo not drawn) [Compound P-37, [1-ethyl-4-(1-methylpyrazol-4-yl)-3,4-dihydro-1H-isoquinolin-2-yl]-(5-phenylisoxazol-3-yl)methanone], the inhibition of growth at 20 ppm was no less than 80%.

For `COC(=O)C1c2ccccc2C(c2cnn(C)c2)CN1C(=O)c1cc(-c2ccccc2)on1` (stereo not drawn) [Compound P-41, methyl 4-(1-methylpyrazol-4-yl)-2-(5-phenylisoxazole-3-carbonyl)-3,4-dihydro-1H-isoquinoline-1-carboxylate], the inhibition of growth at 20 ppm was no less than 80%.

Regarding `Cn1cc(C2CN(C(=O)c3cc(-c4ccc(F)cc4F)on3)C(c3ccccc3)c3ccccc32)cn1` (stereo not drawn) [Compound P-43, [5-(2,4-difluorophenyl)isoxazol-3-yl]-[4-(1-methylpyrazol-4-yl)-1-phenyl-3,4-dihydro-1H-isoquinolin-2-yl]methanone], the inhibition of growth at 20 ppm is no less than 80%.

Consider `CCCC1c2ccccc2C(c2cnn(C)c2)CN1C(=O)c1cc(-c2ccc(F)cc2F)on1` (stereo not drawn) [Compound P-59, [5-(2,4-difluorophenyl)isoxazol-3-yl]-[4-(1-methylpyrazol-4-yl)-1-propyl-3,4-dihydro-1H-isoquinolin-2-yl]methanone], for which the inhibition of growth at 20 ppm was no less than 80%.

Turning to `COC(=O)c1ccc2c(c1)C(c1cnn(C)c1)CN(C(=O)c1cc(-c3ccc(F)cc3F)on1)C2` (stereo not drawn) [Compound P-61, methyl 2-[5-(2,4-difluorophenyl)isoxazole-3-carbonyl]-4-(1-methylpyrazol-4-yl)-3,4-dihydro-1H-isoquinoline-6-carboxylate], the inhibition of growth at 20 ppm was no less than 80%.

As for `COc1ccc2c(c1)C(c1cnn(C)c1)CN(C(=O)c1cc(-c3ccc(F)cc3F)on1)C2` (stereo not drawn) [Compound P-66, [5-(2,4-difluorophenyl)isoxazol-3-yl]-[6-methoxy-4-(1-methylpyrazol-4-yl)-3,4-dihydro-1H-isoquinolin-2-yl]methanone], the inhibition of growth at 20 ppm was no less than 80%.

For the molecule `Cn1cc(C2CN(C(=O)c3ncc(C4CC4)o3)Cc3ccccc32)cn1` (stereo not drawn) [Compound P-68, (5-cyclopropyloxazol-2-yl)-[4-(1-methylpyrazol-4-yl)-3,4-dihydro-1H-isoquinolin-2-yl]methanone], the inhibition of growth at 20 ppm was no less than 80%.

As to `Cn1cc(C2CN(C(=O)c3coc(-c4ccc(F)cc4)n3)Cc3ccccc32)cn1` (stereo not drawn) [Compound P-69, [2-(4-fluorophenyl)oxazol-4-yl]-[4-(1-methylpyrazol-4-yl)-3,4-dihydro-1H-isoquinolin-2-yl]methanone], the inhibition of growth at 20 ppm is no less than 80%.

Take `Cn1cc(C2CN(C(=O)c3cc(C(C)(C)C)no3)Cc3ccccc32)cn1` (stereo not drawn) [Compound P-83, (3-tert-butylisoxazol-5-yl)-[4-(1-methylpyrazol-4-yl)-3,4-dihydro-1H-isoquinolin-2-yl]methanone]: the inhibition of growth at 20 ppm is no less than 80%.

In the case of `CCCc1cc(C(=O)N2Cc3ccccc3C(c3cnn(C)c3)C2)no1` (stereo not drawn) [Compound P-84, [4-(1-methylpyrazol-4-yl)-3,4-dihydro-1H-isoquinolin-2-yl]-(5-propylisoxazol-3-yl)methanone], the inhibition of growth at 20 ppm is no less than 80%.

On to `CCC(C)c1cc(C(=O)N2Cc3ccccc3C(c3cnn(C)c3)C2)on1` (stereo not drawn) [Compound P-88, [4-(1-methylpyrazol-4-yl)-3,4-dihydro-1H-isoquinolin-2-yl]-(3-sec-butylisoxazol-5-yl)methanone], for which the inhibition of growth at 20 ppm is no less than 80%.

Regarding `Cn1cc(C2CN(C(=O)c3noc(-c4cc(F)ccc4F)n3)Cc3ccccc32)cn1` (stereo not drawn) [Compound P-90, [5-(2,5-difluorophenyl)-1,2,4-oxadiazol-3-yl]-[4-(1-methylpyrazol-4-yl)-3,4-dihydro-1H-isoquinolin-2-yl]methanone], the inhibition of growth at 20 ppm is no less than 80%.

As to `Cn1cc(C2CN(C(=O)c3cc(-c4ccccc4)on3)Cc3cc(C(F)(F)F)ccc32)cn1` (stereo not drawn) [Compound P-103, [4-(1-methylpyrazol-4-yl)-7-(trifluoromethyl)-3,4-dihydro-1H-isoquinolin-2-yl]-(5-phenylisoxazol-3-yl)methanone], the inhibition of growth at 20 ppm was no less than 80%.

Turning to `Cn1cc(C2CN(C(=O)c3cc(-c4ccc(F)cc4F)on3)Cc3ccc(C(F)(F)F)cc32)cn1` (stereo not drawn) [Compound P-112, [5-(2,4-difluorophenyl)isoxazol-3-yl]-[4-(1-methylpyrazol-4-yl)-6-(trifluoromethyl)-3,4-dihydro-1H-isoquinolin-2-yl]methanone], the inhibition of growth at 20 ppm was no less than 80%.

Turning to `Cc1nn(C)c(C)c1C1c2ccccc2CN(C(=O)c2cc(-c3ccc(F)cc3F)on2)C1C` (stereo not drawn) [Compound P-113, [5-(2,4-difluorophenyl)isoxazol-3-yl]-[3-methyl-4-(1,3,5-trimethylpyrazol-4-yl)-3,4-dihydro-1H-isoquinolin-2-yl]methanone], the inhibition of growth at 20 ppm is no less than 80%.

`CCn1nc(C)c(C2CN(C(=O)c3cc(-c4ccc(F)cc4F)on3)Cc3ccccc32)c1C` (stereo not drawn) [Compound P-116, [5-(2,4-difluorophenyl)isoxazol-3-yl]-[4-(1-ethyl-3,5-dimethyl-pyrazol-4-yl)-3,4-dihydro-1H-isoquinolin-2-yl]methanone]: the inhibition of growth at 20 ppm was no less than 80%.

For the molecule `C#CCn1cc(C2CN(C(=O)c3cc(-c4ccccc4)on3)Cc3ccccc32)cn1` (stereo not drawn) [Compound P-128, (5-phenylisoxazol-3-yl)-[4-(1-prop-2-ynylpyrazol-4-yl)-3,4-dihydro-1H-isoquinolin-2-yl]methanone], the inhibition of growth at 20 ppm is no less than 80%.

Take `Cn1cc(C2CN(C(=O)c3cc(-c4c(F)cc(F)cc4F)no3)Cc3ccccc32)cn1` (stereo not drawn) [Compound P-129, [4-(1-methylpyrazol-4-yl)-3,4-dihydro-1H-isoquinolin-2-yl]-[3-(2,4,6-trifluorophenyl)isoxazol-5-yl]methanone]: the inhibition of growth at 20 ppm is no less than 80%.

Regarding `Cn1cc(C2CN(C(=O)c3cc(-c4ccc(F)c(F)c4F)on3)Cc3ccccc32)cn1` (stereo not drawn) [Compound P-144, [4-(1-methylpyrazol-4-yl)-3,4-dihydro-1H-isoquinolin-2-yl]-[5-(2,3,4-trifluorophenyl)isoxazol-3-yl]methanone], the inhibition of growth at 20 ppm was no less than 80%.

For the molecule `Cn1cc(C2CN(C(=O)c3coc(-c4ccccc4)c3)Cc3ccccc32)cn1` (stereo not drawn) [Compound P-147, [4-(1-methylpyrazol-4-yl)-3,4-dihydro-1H-isoquinolin-2-yl]-(5-phenyl-3-furyl)methanone], the inhibition of growth at 20 ppm is no less than 80%.

Take `Cn1cc(C2CN(C(=O)c3cc(-c4cccc(F)c4F)on3)Cc3ccccc32)cn1` (stereo not drawn) [Compound P-150, [5-(2,3-difluorophenyl)isoxazol-3-yl]-[4-(1-methylpyrazol-4-yl)-3,4-dihydro-1H-isoquinolin-2-yl]methanone]: the inhibition of growth at 20 ppm is no less than 80%.
